In article PMC12655351, “Synthesis and Anticancer Activity Evaluation of New 5-((5-Nitrofuran-2-yl)allylidene)-2-thioxo-4-thiazolidinones” (Pharmaceuticals, 2025):

Assays:
AGS = experiment: MTT assay; format: cell-based; details: Homo sapiens, 24 h of treatment
Procedure: (§1) The NCI-60 screening protocol utilizes the sulforhodamine B (SRB) assay following 48 h of compound exposure. […] The MTT assay was performed on eleven cancer cell lines: human breast cancer (MDA-MB-231, MCF-7, HCC 1954), human gastric cancer (AGS), human colorectal adenocarcinoma (HT-29, DLD-1, HCT 116), human neuroblastoma (SH SY5Y), and human leukemia (JURKAT, RMPI 8866, K-562) cell lines. The study was conducted in triplicate at the following seven concentrations: 0.62, 1.25, 2.5, 5, 10, 20, and 40 μM.
(§2) The selected cell lines were seeded into 96-well plates and cultured in accordance with the previously described methodology. Then, the cells were treated with all tested compounds and DOX at concentrations of 0.625, 1.25, 2.5, 5.0, 10.0, 20.0, and 40.0 μM for 24 h. A solution of 3-(4,5-dimethyl-2-thiazolyl)-2,5-diphenyl-2H-tetrazolium bromide (Sigma-Aldrich, St. Louis, MO, USA) in phosphate-buffered saline without calcium and magnesium (Corning, Kennebunk, ME, USA) at a concentration of 5 mg/mL was used to carry out MTT assay. After incubation, 20 μL of the prepared MTT solution was added, and then the cells were incubated at 37 °C for two hours. Afterwards, the cells were lysed using 100 μL of lysing buffer (comprising 25 mM HCl, 2% acetic acid, 3% DMF, and 5% SDS, with a pH of 4.7). The absorbance was determined at a wavelength of 570 nm using an Absorbance 96 microplate reader (Byonoy GmbH, Hamburg, Germany).

DLD-1 = experiment: MTT assay; format: cell-based; details: Homo sapiens; DLD-1, 24 h of treatment
Procedure: as §1, §2

HCC-1954 = experiment: MTT assay; format: cell-based; details: Homo sapiens, HCC1954; HCC-1954, 24 h of treatment
Procedure: as §1, §2

HCT-116 = experiment: MTT assay; format: cell-based; details: Homo sapiens; HCT-116, 24 h of treatment
Procedure: as §1, §2

HT-29 = experiment: MTT assay; format: cell-based; details: Homo sapiens; HT-29, 24 h of treatment
Procedure: as §1, §2

Jurkat = experiment: MTT assay; format: cell-based; details: Homo sapiens, 24 h of treatment
Procedure: as §1, §2

K562 = experiment: MTT assay; format: cell-based; details: Homo sapiens; K562, 24 h of treatment
Procedure: as §1, §2

MCF-7 = experiment: MTT assay; format: cell-based; details: Homo sapiens, MCF7; MCF-7, 24 h of treatment
Procedure: as §1, §2

MDA-MB-231 = experiment: MTT assay; format: cell-based; details: Homo sapiens; MDA-MB-231, 24 h of treatment
Procedure: as §1, §2

RPMI 8866 = experiment: MTT assay; format: cell-based; details: Homo sapiens; RPMI 8866, 24 h of treatment
Procedure: as §1, §2

SH SY5Y = experiment: MTT assay; format: cell-based; details: Homo sapiens, 24 h of treatment
Procedure: as §1, §2

COLO 205 = details: COLO 205, 48 h
SK-MEL-28 [1] = details: SK-MEL-28, 48 h
SN12C = details: SN12C, 48 h
PC-3 = details: PC-3, 48 h
[2] = test system: Non-small cell lung cancer; details: Non-small cell lung cancer subpanel
Prostate Cancer = Prostate Cancer subpanel
SF-539 = experiment: cells; details: Homo sapiens, SF-539, 48 h
SK-MEL-28 [3] = experiment: cells; details: Homo sapiens, SK-MEL-28, 48 h; for CC50: read-out: LC50, SK-MEL-28, 48 h
OVCAR-4 = experiment: cells; details: Homo sapiens, OVCAR-4, 48 h; for CC50: read-out: LC50, OVCAR-4, 48 h
A498 = experiment: cells; details: Homo sapiens, A498, 48 h
MDA-MB-231/ATCC = experiment: cells; details: Homo sapiens, MDA-MB-231, 48 h; for GI50: MDA-MB-231/ATCC, 48 h; for CC50: read-out: LC50, MDA-MB-231/ATCC, 48 h
HL-60(TB) = experiment: NCI-60 SRB screen; details: for TGI / GI50: HL-60(TB), 48 h
SW-620 = experiment: NCI-60 SRB screen; details: SW-620, 48 h
MALME-3M = experiment: NCI-60 SRB screen; details: 48 h; for GI50 / CC50: Homo sapiens, Malme-3M; for CC50: read-out: LC50, MALME-3M, 48 h; for TGI: MALME-3M

| SMILES | IC50 (AGS) [µM] | IC50 (DLD-1) [µM] | IC50 (HCC-1954) [µM] | IC50 (HCT-116) [µM] | IC50 (HT-29) [µM] | IC50 (Jurkat) [µM] | IC50 (K562) [µM] | IC50 (MCF-7) [µM] | IC50 (MDA-MB-231) [µM] | IC50 (RPMI 8866) [µM] | IC50 (SH SY5Y) [µM] | TGI (COLO 205) [µM] | TGI (SK-MEL-28 [1]) [µM] | TGI (SN12C) [µM] | TGI (PC-3) [µM] | MG_MID TGI [2] [µM] | MG_MID TGI (Prostate Cancer) [µM] | GI50 (SF-539) [µM] | GI50 (SK-MEL-28 [3]) [µM] | CC50 (SK-MEL-28 [3]) [µM] | further results |
| --- | --- | --- | --- | --- | --- | --- | --- | --- | --- | --- | --- | --- | --- | --- | --- | --- | --- | --- | --- | --- | --- |
| O=C(O)C(c1ccccc1)N1C(=O)/C(=C/C=C/c2ccc([N+](=O)[O-])o2)SC1=S (centres unmarked) [9b, 2-((Z)-5-((E)-3-(5-Nitrofuran-2-yl)allylidene)-4-oxo-2-thioxothiazolidin-3-yl)-2-phenylacetic acid] | 12.9 | 12.3 | 20.6 | 11.7 | 20 | 2.51 | 37.6 | 14.1 | 36.7 | 5.54 | 20.1 | 22.2 | 23.4 | 18.3 | 29.9 | 31.8 | 26.8 | 12 | 10.7 | 51.1 | GI50 (OVCAR-4): 13.9 µM; CC50 (OVCAR-4): 56.1 µM; GI50 (A498): 20.8 µM; GI50 (MDA-MB-231/ATCC): 10.8 µM; CC50 (MDA-MB-231/ATCC): 54.2 µM; TGI (HL-60(TB)): 42.2 µM; GI50 (HL-60(TB); Homo sapiens, HL-60, 48 h): 14.8 µM; CC50 (HL-60(TB); Homo sapiens, HL-60, 48 h, read-out: LC50, HL-60(TB), 48 h): > 100 µM; GI50 (SW-620; Homo sapiens): 2.94 µM; TGI (SW-620): 9.66 µM; GI50 (MALME-3M): 5.4 µM; CC50 (MALME-3M): 48.8 µM; TGI (MALME-3M): 18.7 µM |
| O=C(O)CCN1C(=O)/C(=C/C=C/c2ccc([N+](=O)[O-])o2)SC1=S [12b, 3-((Z)-5-((E)-3-(5-Nitrofuran-2-yl)allylidene)-4-oxo-2-thioxothiazolidin-3-yl)propanoic acid] | 3.65 | 3.31 | 4.86 | 3.68 | 8.56 | 1.77 | 7.15 | 3.01 | 12.9 | 7.78 | 13.1 | 12.4 | 3.05 | 2.32 | 10.6 | 7.75 | 10.6 | 1.66 | 1.57 | 5.93 | growth GP (SN12C; 10 μM): -95.84%; GI50 (OVCAR-4): 1.79 µM; CC50 (OVCAR-4): 8.07 µM; GI50 (A498): 14.3 µM; GI50 (MDA-MB-231/ATCC): 1.7 µM; CC50 (MDA-MB-231/ATCC): 6.15 µM; TGI (HL-60(TB)): 3.30 µM; GI50 (HL-60(TB); Homo sapiens, HL-60, 48 h): 1.28 µM; TGI (SW-620): 19.8 µM; GI50 (MALME-3M): 0.5 µM; CC50 (MALME-3M): 4.25 µM; TGI (MALME-3M): 1.66 µM |
